Assay type in all cases: in vivo
Assay [1] deals with Echinochloa crus-galli (ECHCG). In words: Test 1A glasshouse assay for herbicidal activity, post-emergence. Particulars: 312 h, evaluated after 13 days, read-out: percentage phytotoxicity ECHCG. Put shortly: (§1)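 Damage is rated by eye as percent phytotoxicity on a 0–100 scale, 13 days after treatment. Compound is sprayed in acetone/water (50:50) with 0.5% Tween 20 onto pots one day (pre-emergence) or eight days (post-emergence) after sowing, with plants kept at 24/16 °C and 14 h light.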

The test system of assay [2] is Amaranthus retroflexus (AMARE). The assay is described as above. Particulars: 312 h, evaluated after 13 days, read-out: percentage phytotoxicity AMARE. Put shortly:
as §1

Assay [3] has as its system Setaria faberi (SETFA). Described as above. Particulars: 312 h, evaluated after 13 days, read-out: percentage phytotoxicity SETFA. The method in brief:
as §1

The test system of assay [4] is Alopecurus myosuroides (ALOMY). The assay is described as above. As to conditions: 312 h, evaluated after 13 days, read-out: percentage phytotoxicity ALOMY. Put shortly:
as §1

Assay [5] concerns Echinochloa crus-galli (ECHCG). In words: Test 1B glasshouse assay for herbicidal activity, post-emergence. Particulars: Echinochloa crus-galli; for pest or weed control at 30 g/ha: 30 g/ha application rate. As to the method:
(§2) Seeds of a variety of monocotyledonous and dicotyledonous test plants are sown in standard soil in pots. The plants are cultivated for one day (for pre-emergence) or for about 12 days (range=10-13 days) (for post-emergence) under controlled conditions in a glasshouse (warm climate species at 24/18° C., cool climate species at 20/16° C., both at day/night; 16 hours light; 65% humidity).
(§3) An “instant formulation”, known as the “IF50”, containing 50 g/liter (i.e. 5% w/v) of the “technical” (i.e. unformulated) active ingredient is prepared by dissolving the active ingredient in a mixture of organic solvents and emulsifier, details of which are provided in the Table below. This IF50 is then mixed with a small, variable amount of acetone to aid dissolution, before addition of a 0.2% v/v aqueous solution of the adjuvant X-77 (which is a mixture of alkyl aryl polyoxyethylene glycols and free fatty acids in isopropanol, CAS Registry number 11097-66-8), as the aqueous diluent, to form an aqueous spray solution which contains a predetermined concentration of the active ingredient (which varies depending on the application rate of the active ingredient to the plants) and 0.2% v/v of the adjuvant X-77. This aqueous spray solution is then sprayed onto the plants, after one day's cultivation (for pre-emergence) or after about 12 days' cultivation (for post-emergence).
(§4) The test plants are then grown on, in a glasshouse (greenhouse) under controlled conditions (at either 24/18° C. or 20/16° C. (day/night) as mentioned above; 16 hours light; 65% humidity) and are watered twice daily. Either 15 days after application of the herbicide (15 DAA) (for post-emergence), or 20 days after application of the herbicide (20 DAA) (for pre-emergence), the test plants are evaluated visually, and an assessed percentage phytotoxicity score is given for each herbicidal application on each plant species (where 100%=total damage to plant; 0%=no damage to plant).
(§5) Warm climate (“warm season”) grassy monocotyledonous weeds: Setaria faberi (SETFA), SORVU (Sorghum bicolor (L.) Moench ssp. Bicolor, or Sorghum vulgare Pers.), Digitaria sanguinalis (DIGSA), Echinochloa crus-galli (ECHCG), and Brachiaria plantaginea (BRAPL).
Note: The herbicidal activity data (e.g. post-emergence) shown above in Biological Example 1B for Comparator compounds X-9 and X-10 is thought likely to have been measured some years ago, probably using a variant of the above-described test method. Also, for the post-emergence activity of X-9 and X-10 it is not currently known exactly how many days after application of the herbicide the phytotoxicity on the plants was measured.

Assay [6] has as its system Avena fatua (AVEFA). In words: Test 1B glasshouse assay for herbicidal activity, pre-emergence. As to conditions: 480 h, 20 DAA, read-out: percentage phytotoxicity AVEFA. As to the method: as §2, §3, §4
(§6) Cool climate (“cool season”) grassy monocotyledonous weeds: Alopecurus myosuroides (ALOMY), Avena fatua (AVEFA), Lolium perenne (LOLPE).

Assay [7] deals with Lolium perenne (LOLPE). Described as above. Particulars: 480 h, 20 DAA, read-out: percentage phytotoxicity LOLPE. On the procedure:
as §2, §3, §4, §6

Assay [8] relates to Alopecurus myosuroides (ALOMY). Described as above. As to conditions: 480 h, 20 DAA, read-out: percentage phytotoxicity ALOMY. On the procedure:
as §2, §3, §4, §6

For assay [9], the system named is Beta vulgaris (BEAVA, sugar beet). The description is as above. Particulars: 480 h, 20 DAA, read-out: percentage phytotoxicity BEAVA. On the procedure: as §2, §3, §4
(§7) Cool climate crop plants: Triticum aestivum (TRZAW, winter wheat), Brassica napus (BRSNN, rape, also called oilseed rape or rapeseed), Beta vulgaris (BEAVA, sugar beet).

The subject of assay [10] is Brassica napus (BRSNN, rape). The description is as above. Particulars: 480 h, 20 DAA, read-out: percentage phytotoxicity BRSNN. As to the method: as §2, §3, §4, §7
Assay [11] has as its system Triticum aestivum (TRZAW, winter wheat). The description is as above. As to conditions: 480 h, 20 DAA, read-out: percentage phytotoxicity TRZAW. On the procedure:
as §2, §3, §4, §7

The subject of assay [12] is Digitaria sanguinalis (DIGSA). In words: Test 1B glasshouse assay for herbicidal activity, post-emergence. As to conditions: 360 h; for pest or weed control at 30 g/ha: 30 g/ha application rate. As to the method: as §2, §3, §4, §5
Assay [13] deals with Setaria faberi (SETFA). The description is as above. As to conditions: 360 h; for pest or weed control at 30 g/ha: 30 g/ha application rate. On the procedure: as §2, §3, §4, §5
In assay [14] the test system is SORVU (Sorghum bicolor (L.) Moench ssp. Bicolor, or Sorghum vulgare Pers.). The description is as above. Particulars: 360 h; for pest or weed control at 30 g/ha: 30 g/ha application rate. On the procedure: as §2, §3, §4, §5
Assay [15] relates to Echinochloa crus-galli (ECHCG). In words: Test 1B glasshouse assay for herbicidal activity, pre-emergence. As to conditions: 480 h, 20 DAA, read-out: percentage phytotoxicity ECHCG. As to the method: as §2, §3, §4, §5

Turning to `Cc1cc(C#CCl)cc(C)c1C1C(=O)C2CCC(C2)C1=O` (stereo not drawn) [Compound A-6], the pest or weed control at 62.5 g/ha in assay [1] (62.5 g/ha) was 100%; in [2] (62.5 g/ha), 10%; in [3] (62.5 g/ha) it was 90%; in [4] (62.5 g/ha), 70%. The pest or weed control at 250 g/ha is 100% in assay [1], 0% in assay [2], 90% in [3] and 70% in assay [4]. Besides, the pest or weed control at 30 g/ha in assay [5] was determined as 90%; in [12] it was 100%; in [13], 100%; in assay [14] it was 90%. In addition, the pest or weed control at 60 g/ha in [5] (60 g/ha application rate) was 90%; in [12] (60 g/ha application rate), 100%; in [13] (60 g/ha application rate) it was 100%; in assay [14] (60 g/ha application rate), 90%. In addition, the pest or weed control at 125 g/ha in [6] (125 g/ha) came out at 40%; in [7] (125 g/ha), 80%; in [8] (125 g/ha), 60%; in [15] (125 g/ha) it was 60%. In addition, the values for the plant injury at 125 g/ha in assay [9] (125 g/ha), in [10] (125 g/ha) and in [11] (125 g/ha) were 0%, 70% and 10%, respectively.
For `CC#Cc1cc(Cl)c(C2C(=O)C3CCC(C)(C2=O)C3(C)C)c(OC)c1` (stereo not drawn) [Compound A-17], the pest or weed control at 250 g/ha in [1] was 100%; in assay [2] it was 0%; in [3], 90%; in [4] it was 90%; in assay [5] (250 g/ha application rate), 90%; in assay [6] (250 g/ha), 60%. The pest or weed control at 250 g/ha came out at 50% in [7] (250 g/ha); 0% in assay [8] (250 g/ha); 70% in assay [12] (250 g/ha application rate); 80% in assay [13] (250 g/ha application rate); 80% in [14] (250 g/ha application rate); 100% in assay [15] (250 g/ha). The plant injury at 250 g/ha in assay [9] (250 g/ha), in assay [10] (250 g/ha) and in assay [11] (250 g/ha) was 0% in each case.
As for `CC#Cc1cc(Cl)c(C2C(=O)CC3(CCOCC3)CC2=O)c(OC)c1` [Compound A-20, 9-(2-Chloro-6-methoxy-4-prop-1-ynyl-phenyl)-3-oxa-spiro[5.5]undecane-8,10-dione], the pest or weed control at 8 g/ha came out at 100% in [1] (8 g/ha), 10% in assay [2] (8 g/ha), 90% in assay [3] (8 g/ha) and 90% in assay [4] (8 g/ha). Also, the pest or weed control at 30 g/ha in [1] turned out to be 100%; in assay [2] it was 80%; in [3] it was 100%; in assay [4], 100%. Moreover, the pest or weed control at 250 g/ha in [1] worked out at 100%; in [2], 80%; in assay [3], 100%; in assay [4], 100%.
Consider `Cc1cc(C#CCl)cc(C)c1C1C(=O)CC(CC2CCOCC2)CC1=O` (stereo not drawn) [Compound A-8], for which the pest or weed control at 250 g/ha stood at 100% in assay [1], 40% in assay [2], 90% in [3] and 80% in assay [4]. Further, the pest or weed control at 30 g/ha in [5] came out at 100%; in assay [12], 100%; in assay [13], 90%; in assay [14], 90%.
On to `CC#Cc1cc(C)c(C2C(=O)CC(CCSC)CC2=O)c(C)c1` (stereo not drawn) [Compound A-21, 2-(2,6-Dimethyl-4-prop-1-ynyl-phenyl)-5-(2-methylsulfanyl-ethyl)cyclohexane-1,3-dione], for which the pest or weed control at 30 g/ha was determined as 80% in assay [1], 80% in assay [2], 70% in assay [3] and 50% in assay [4]. In addition, the pest or weed control at 250 g/ha is 100% in assay [1], 20% in [2], 100% in assay [3] and 90% in assay [4].

These data come from patent publication US9615577B2, “Herbicidally active cyclic dione compounds, or derivatives therefor, substituted by a phenyl which has an alkynyl-containing substituent” (Syngenta Limited, priority 2012, dated 2017).
